According to patent US12144864B2, “Tubulysins and protein-tubulysin conjugates” (Regeneron Pharmaceuticals, Inc., priority 2018, dated 2024):
Read-outs that look alike come from different tables or passages of the source.

How the values were obtained:
C4-2 cells = assay: Cell-based killing assay of payloads (CellTiter-Glo), C4-2 cells; design: species or system human; details: 5-day incubation; for IC50: Homo sapiens, C4-2, 120 h, average ± SD where replicates; for C4-2 % Kill: at maximum concentration tested (100 − % viable cells)
Experimental: (§1) To test the ability of the disclosed tubulysin payloads to kill human cell lines, an in vitro cytotoxicity assay was performed. In vitro cytotoxicity of the disclosed payloads, as well as reference compounds, were evaluated using the CellTiter-Glo Assay Kit (Promega, Cat #G7573), in which the quantity of ATP present is used to determine the number of viable cells in culture. For the assay, C4-2, HEK293, or T47D cells were seeded at 4000 cells/well on Nunclon white 96-well plates in complete growth medium (DME high glucose:Ham's F12 at 4:1, 10% FBS, 100 units/ml Penicillin, 100 ug/ml streptomycin, 53 ug/ml glutatmine, 10 ug/ml insulin, 220 ng/ml biotin, 12.5 pg/ml T3, 12.5 ug/ml Adenine, 4 ug/ml transferrin for C42 cells; DME high glucose, 10% FBS, 100 units/ml Penicillin, 100 ug/ml streptomycin, 53 ug/ml glutatmine for HEK293; RPMI, 10% FBS, 100 units/ml Penicillin, 100 ug/ml streptomycin, 53 ug/ml glutatmine, 10 ug/ml insulin, 10 mM HEPEs, 200 nM Sodium Pyruvate for T47D cells) and grown overnight at 37° C. in 5% CO2. For cell viability curves, 1:3 serially diluted payloads were added to the cells at final concentrations ranging from 100 nM to […], including a no treatment control group, and were then incubated for 5 days. After the 5-day incubation, cells were incubated at room temperature with 100 μL of CellTiter-Glo reagents for 10 minutes. Relative luminescence units (RLU) were determined on a Victor plate reader (PerkinElmer). The IC50 values were determined from a four-parameter logistic equation over a 10-point response curve (GraphPad Prism). All IC50 values are expressed in molar (M) concentration. The percent cell killing (% kill) at the maximum concentration tested was estimated from the following formula (100−% viable cells). Averages±standard deviation (SD) are included where replicate experiments were performed.

H69AR cells = assay: Cytotoxicity in panel of MDR cell lines, H69AR (72 h and 144 h); format: cell-based, human; details: for IC50: Homo sapiens
Experimental: as §1
(§2) To further test the ability of the disclosed tubulysin payloads, a cytotoxicity assay was performed using a panel of multidrug resistant (MDR) cell lines. In vitro cytotoxicity of the disclosed payloads as well as reference compounds were similarly evaluated as described above except using HCT-15 cells, a colorectal carcinoma cell line; H69AR, a doxorubicin resistant MDR derivative of the small cell lung cancer carcinoma cell line NCI-H69; MES-SA/MX2, a mitoxantrone resistant MDR derivative of the uterine sarcoma cell line MES-SA; and HL60/MX2, a mitoxantrone resistant MDR derivative of the acute promyelocytic leukemia cell line HL60. In these assays, cytotoxicity was evaluated in normal growth media (RPMI, 10% FBS, 100 units/ml Penicillin, 100 ug/ml streptomycin, and 53 ug/ml glutatmine for HCT-15 and HL60/MX2; RPMI, 20% FBS, 100 units/ml Penicillin, 100 ug/ml streptomycin, and 53 ug/ml glutatmine for H69-AR; Waymouths's:McCoy's (1:1), 10% FBS, 100 units/ml Penicillin, 100 ug/ml streptomycin, and 53 ug/ml glutatmine for MES-SA/MX2) with 1000 cells per well following 72 h and 144 h incubation with payloads.

HCT15 cells = assay: cells; format: cell-based, human; details: HCT15 cells; for HCT-15 + verapamil % Kill / HCT-15 % Kill: maximum % cell killing
Experimental: as §1
In vitro cytotoxicity of the disclosed payloads as well as reference compounds were evaluated similarly as described above except using 1000 HCT15 cells, a colorectal carcinoma cell line, in growth medium (RPMI, 10% FBS, 100 units/ml Penicillin, 100 ug/ml streptomycin, 53 ug/ml glutatmine) with or without 5 ug/mL of Verapamil.

HL60/MX2 cells = assay: Cytotoxicity in panel of MDR cell lines, HL60/MX2 (72 h and 144 h); format: cell-based, human; details: for IC50: Homo sapiens
Experimental: as §1, §2

HCT-15 cells = assay: Cytotoxicity in panel of MDR cell lines, HCT-15 (72 h and 144 h); format: cell-based, human; details: for IC50: Homo sapiens
Experimental: as §1, §2

MES-SA/MX2 cells = assay: Cytotoxicity in panel of MDR cell lines, MES-SA/MX2 (72 h and 144 h); format: cell-based, human; details: for IC50: Homo sapiens
Experimental: as §1, §2

[1] = 72 h incubation, read-out: H69AR IC50 72 h
[2] = 144 h incubation, read-out: H69AR IC50 144 h
[3] = with 5 ug/mL Verapamil, read-out: HCT-15 + verapamil IC50
[4] = Homo sapiens, HCT-15, without Verapamil, read-out: HCT-15 IC50
[5] = 72 h incubation, read-out: HL60/MX2 IC50 72 h
[6] = 144 h incubation, read-out: HL60/MX2 IC50 144 h
[7] = 72 h incubation, read-out: HCT-15 IC50 72 h
[8] = 144 h incubation, read-out: HCT-15 IC50 144 h
[9] = 72 h incubation, read-out: MES-SA/MX2 IC50 72 h
[10] = 144 h incubation, read-out: MES-SA/MX2 IC50 144 h

Structure (SMILES)	IC50 (C4-2 cells)	C4-2 % Kill (C4-2 cells)	H69AR % Kill 72 h (H69AR cells; 72 h incubation)	H69AR % Kill 144 h (H69AR cells; 144 h incubation)	IC50 (H69AR cells; [1])	IC50 (H69AR cells; [2])	HCT-15 + verapamil % Kill (HCT15 cells; with 5 ug/mL Verapamil)	IC50 (HCT15 cells; [3])	HCT-15 % Kill (HCT15 cells; without Verapamil)	IC50 (HCT15 cells; [4])	HL60/MX2 % Kill 72 h (HL60/MX2 cells; 72 h incubation)	HL60/MX2 % Kill 144 h (HL60/MX2 cells; 144 h incubation)	IC50 (HL60/MX2 cells; [5])	IC50 (HL60/MX2 cells; [6])	HCT-15 % Kill 72 h (HCT-15 cells; 72 h incubation)	HCT-15 % Kill 144 h (HCT-15 cells; 144 h incubation)	IC50 (HCT-15 cells; [7])	IC50 (HCT-15 cells; [8])	MES-SA/MX2 % Kill 72 h (MES-SA/MX2 cells; 72 h incubation)	MES-SA/MX2 % Kill 144 h (MES-SA/MX2 cells; 144 h incubation)	also measured
CCCCCCN(C(=O)[C@@H](NC(=O)[C@H]1CCCCN1C)[C@@H](C)CC)[C@H](C[C@@H](OC(C)=O)c1nc(C(=O)N[C@@H](Cc2ccc(N)cc2)CC(C)(C)C(=O)NN)cs1)C(C)C [IVy, (1R,3R)-1-(4-((S)-1-(4-Aminophenyl)-5-hydrazinyl-4,4-dimethyl-5-oxopentan-2-ylcarbamoyl)thiazol-2-yl)-3-((2S,3S)—N-hexyl-3-methyl-2-((R)-1-methylpiperidine-2-carboxamido)pentanamido)-4-methylpentyl acetate]	1.82 nM	94.4%																			
[2H]c1cc(C[C@@H](CC(C)(C)C(=O)O)NC(=O)c2csc([C@@H](C[C@H](C(C)C)N(CCCCC#C)C(=O)[C@@H](NC(=O)[C@H]3CCCCN3C)[C@@H](C)CC)OC(C)=O)n2)cc([2H])c1N [IVr, (S)-4-(2-((1R,3R)-1-Acetoxy-3-((2S,3S)—N-(hex-5-yn-1-yl)-3-methyl-2-((R)-1-methylpiperidine-2-carboxamido)pentanamido)-4-methylpentyl)thiazole-4-carboxamido)-5-(4-aminophenyl-3,5-d2)-2,2-dimethylpentanoic acid]			96.7%	99%	0.137 nM	0.211 nM	99%	0.0624 nM	99.1%	0.0893 nM	98.7%	100%	< 0.015 nM	< 0.015 nM	98%	99.7%	0.0401 nM	0.0621 nM	99.1%	100%	IC50 (MES-SA/MX2 cells; [9]): 0.151 nM; IC50 (MES-SA/MX2 cells; [10]): 0.176 nM
C#CCCCCN(C(=O)[C@@H](NC(=O)[C@H]1CCCCN1C)[C@@H](C)CC)[C@H](C[C@@H](OC(C)=O)c1nc(C(=O)N[C@@H](Cc2ccccc2)CC(C)(C)C(=O)O)cs1)C(C)C [IVb, (4S)-4-({2-[(1R,3R)-1-(Acetyloxy)-3-[(2S,3S)—N-(hex-5-yn-1-yl)-3-methyl-2-{[(2R)-1-methylpiperidin-2-yl]formamido}pentanamido]-4-methylpentyl]-1,3-thiazol-4-yl}formamido)-2,2-dimethyl-5-phenylpentanoic acid]							98.1%	0.103 nM	98%	0.151 nM											
CC[C@H](C)[C@H](NC(=O)[C@H]1CCCCN1C)C(=O)N(CCCCc1cn(CC(=O)O)nn1)[C@H](C[C@@H](OC(C)=O)c1nc(C(=O)N[C@@H](Cc2ccc(N)cc2)CC(C)(C)C(=O)O)cs1)C(C)C [IVm, (S)-4-(2-((1R,3R)-1-acetoxy-3-((2S,3S)—N-(4-(1-(carboxymethyl)-1H-1,2,3-triazol-4-yl)butyl)-3-methyl-2-((R)-1-methylpiperidine-2-carboxamido)pentanamido)-4-methylpentyl)thiazole-4-carboxamido)-5-(4-aminophenyl)-2,2-dimethylpentanoic acid]	> 100 nM	8.9%																			
CCCCCCN(C(=O)[C@@H](NC(=O)[C@H]1CCCCN1C)[C@@H](C)CC)[C@H](C[C@@H](OC(C)=O)c1nc(C(=O)N[C@@H](Cc2ccc(F)cc2)CC(C)(C)C(=O)O)cs1)C(C)C [VIII, (4S)-4-({2-[(1R,3R)-1-(Acetyloxy)-3-[(2S,3S)—N-hexyl-3-methyl-2-{[(2R)-1-methylpiperidin-2-yl]formamido}pentanamido]-4-methylpentyl]-1,3-thiazol-4-yl}formamido)-5-(4-fluorophenyl)-2,2-dimethylpentanoic acid]																					IC50 (HCT15 cells; with 5 ug/mL Verapamil, read-out: HCT-15 + verapamil IC50 (value in brackets)): 0.106 nM; IC50 (HCT15 cells; Homo sapiens, HCT-15, without Verapamil, read-out: HCT-15 IC50 (value in brackets)): 0.295 nM
CCCCCCN(C(=O)[C@@H](NC(=O)[C@H]1CCCCN1C)[C@@H](C)CC)[C@H](C[C@@H](OC(C)=O)c1nc(C(=O)N[C@@H](Cc2ccc(N)cc2)CC(C)(C)C(=O)O)cs1)C(C)C [IVq, (S)-4-(2-((1R,3R)-1-Acetoxy-3-((2S,3S)—N-hexyl-3-methyl-2-((R)-1-methylpiperidine-2-carboxamido)pentanamido)-4-methylpentyl)thiazole-4-carboxamido)-5-(4-aminophenyl)-2,2-dimethylpentanoic acid]			96.9%	99.5%	0.0642 nM	0.128 nM	98.6 ± 0.7%	0.0225 nM	98.4 ± 0.8%	0.0423 nM	98.6%	100%	< 0.015 nM	< 0.015 nM	98%	99.8%	< 0.015 nM	0.0277 nM	99.4%	100%	IC50 (MES-SA/MX2 cells; [9]): 0.0589 nM; IC50 (MES-SA/MX2 cells; [10]): 0.105 nM
CCCCCCN(C(=O)[C@@H](NC(=O)[C@H]1CCCCN1C)[C@@H](C)CC)[C@H](C[C@@H](OC(C)=O)c1nc(C(=O)NC(Cc2ccc(N)c(O)c2)CC(C)(C)C(=O)O)cs1)C(C)C (stereo partly drawn) [IVx, 4-(2-((1R,3R)-1-Acetoxy-3-((2S,3S)—N-hexyl-3-methyl-2-((R)-1-methylpiperidine-2-carboxamido)pentanamido)-4-methylpentyl)thiazole-4-carboxamido)-5-(4-amino-3-hydroxyphenyl)-2,2-dimethylpentanoic acid]			48.7%	38%	> 100 nM	> 100 nM					96.9%	100%	0.955 nM	0.77 nM	84.4%	91%	34.5 nM	84.8 nM	62.1%	33.6%	IC50 (MES-SA/MX2 cells; [9]): > 100 nM; IC50 (MES-SA/MX2 cells; [10]): > 100 nM
C#CCCCON(C(=O)[C@@H](NC(=O)[C@H]1CCCCN1C)[C@@H](C)CC)[C@H](C[C@@H](OC(=O)NCC)c1nc(C(=O)N[C@@H](Cc2ccc(NC(C)=O)cc2)CC(C)(C)C(=O)O)cs1)C(C)C [VIg, (4S)-5-(4-Acetamidophenyl)-4-({2-[(1R,3R)-1-[(ethylcarbamoyl)oxy]-4-methyl-3-[(2S,3S)-3-methyl-2-{[(2R)-1-methylpiperidin-2-yl]formamido}-N-(pent-4-yn-1-yloxy)pentanamido]pentyl]-1,3-thiazol-4-yl}formamido)-2,2-dimethylpentanoic acid]	> 100 nM	10.9%																			
